Results taken from ChEMBL document CHEMBL1201862, “PubChem BioAssay data set” (2004).
Where “and” joins values, the source holds several entries; their conditions need not be identical. Identical values can stand only once. Calls of active or inactive are those of the source.

Assays:
[1] = biological target: Intestinal-type alkaline phosphatase (Homo sapiens, UniProt P09923); test: inhibition of human intestinal alkaline phosphatase – biochemical, dose response (AID 488876); type: functional
[2] = biological target: Intestinal-type alkaline phosphatase (Mus musculus, UniProt P24822); test: PubChem AID 488785; type: functional
[3] = biological target: T1, Alkaline phosphatase, tissue-nonspecific isozyme (Homo sapiens, UniProt P05186); test: TNAP enzyme inhibition by screening hits, dose response, selectivity assay for mouse IAP inhibitor project, biochemical, human TNAP, uHTS hits (AID 488906); type: functional
T1 sequence (P05186 whole entry): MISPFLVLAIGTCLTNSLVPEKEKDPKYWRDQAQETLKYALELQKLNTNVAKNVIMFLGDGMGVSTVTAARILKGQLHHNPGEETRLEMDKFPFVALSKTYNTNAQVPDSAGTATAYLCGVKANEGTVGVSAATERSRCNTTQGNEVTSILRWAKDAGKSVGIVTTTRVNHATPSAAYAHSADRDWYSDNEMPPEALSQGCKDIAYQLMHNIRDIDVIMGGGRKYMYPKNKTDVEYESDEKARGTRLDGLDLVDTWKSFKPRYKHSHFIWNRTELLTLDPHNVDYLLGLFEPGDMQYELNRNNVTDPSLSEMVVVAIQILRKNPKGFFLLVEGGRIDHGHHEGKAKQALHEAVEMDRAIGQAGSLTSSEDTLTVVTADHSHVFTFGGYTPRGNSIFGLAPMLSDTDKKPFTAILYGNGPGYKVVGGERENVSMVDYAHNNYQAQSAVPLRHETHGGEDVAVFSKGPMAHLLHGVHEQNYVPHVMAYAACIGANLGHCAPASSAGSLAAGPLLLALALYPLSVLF

[4] = NIH-3T3 fibroblast cytotoxicity, dose response, cytotoxicity control, cell-based, fluorescence, Alamar Blue, secondary assay (AID 2327); type: functional;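 note: NIH-3T3 mouse fibroblasts cultured with fluconazole at 8 µg/mL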
[5] = biological target: Sphingosine 1-phosphate receptor 1 (Homo sapiens, UniProt P21453); test: Fluorescence-based counterscreen assay for S1P4 agonists: Cell-based dose response high throughput screening assay to identify agonists of the Sphingosine 1-Phosphate Receptor 1 (S1P1). [Related pubchem assays (depositor defined):AID1509, AID1523, AID1801, AID463107, AID463118, AID463119, AID463122, AID463123, AID463129, AID463225, AID504400, AID504460]; type: functional
[6] = biological target: Sphingosine 1-phosphate receptor 4 (Homo sapiens, UniProt O95977); test: Fluorescence dose response cell-based high throughput screening assay for agonists of the Sphingosine 1-Phosphate Receptor 4 (S1P4). [Related pubchem assays: 1509 (Primary screen.), 1523 (Confirmation screen in triplicates.)]; type: functional
[7] = C. albicans growth with fluconazole, confirmation, fluorescence, retest (AID 2467); type: functional, cell-based
[8] = biological target: Sphingosine 1-phosphate receptor 2 (Homo sapiens, UniProt O95136); test: Dose Response Cell Based Assay for Agonists of the S1P2 Receptor. [Related pubchem assays: 729, 736, 843 ]; type: functional
Tumor necrosis factor = Tumor necrosis factor (Homo sapiens, UniProt P01375); test: TNFa-triggered NF-kB activation inhibitors, SAR follow-up, cell-based, revised (AID 2337); type: functional
HEK293 = test: cells; settings: Homo sapiens;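 note: cells exposed to compound for 14 hours overnight before viability readout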
[9] = biological target: Nucleotide-binding oligomerization domain-containing protein 1 (Homo sapiens, UniProt Q9Y239); test: NOD1 signaling inhibitors, SAR follow-up, revised (AID 2333); type: functional
[10] = cytotoxicity in HPDE-C7 cells, cell-based, fluorescence, HTS (AID 430); type: functional; settings: Homo sapiens
[11] = inhibitors of intracellular T. cruzi replication, confirmation, NIH3T3 host cells, beta-gal luminescence (AID 2044); type: functional, cell-based;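 note: intracellular parasites grown in NIH/3T3 mouse fibroblasts as host cells; luminescent beta-galactosidase reporter signal from transgenic T. cruzi replicating inside host cells; inhibitors lower the luminescence signal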
[12] = inhibitors of PGC1a acetylation in cells, dose response, cell-based, cherry-picked samples (AID 720514); type: functional;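 note: potency may reflect raised or lowered acetylation signal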
[13] = biological target: Lysine-specific demethylase 4C (Homo sapiens, UniProt Q9H3R0); test: GASC-1 (JMJD2C) histone demethylase inhibitors, dose response, biochemical, DELFIA europium, cherry-picked samples (AID 488835); type: functional
[14] = microbe, parasite or virus in culture; type: functional; settings: Mycobacterium tuberculosis
[15] = biological target: Lysine-specific demethylase 4A (Homo sapiens, UniProt O75164); test: JMJD2A histone demethylase inhibitors, dose response, selectivity assay for GASC-1 inhibitor project, biochemical, DELFIA europium, cherry-picked samples (AID 488840)
[16] = cytotoxicity in HEK-293T cells, dose response, cytotoxicity control for TCR NF-kB inhibitor project, luminescence, T-cell screen hits (AID 489026); type: functional, cell-based;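 note: cells exposed to compound about 14 hours before the viability readout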
[17] = biological target: T2, Replicative DNA helicase DnaB (Mycobacterium tuberculosis, UniProt P9WMR3); test: DnaB intein splicing inhibitors, dose response, biochemical, cell-free fluorescence (AID 449749); type: functional
T2 sequence (P9WMR3 whole entry): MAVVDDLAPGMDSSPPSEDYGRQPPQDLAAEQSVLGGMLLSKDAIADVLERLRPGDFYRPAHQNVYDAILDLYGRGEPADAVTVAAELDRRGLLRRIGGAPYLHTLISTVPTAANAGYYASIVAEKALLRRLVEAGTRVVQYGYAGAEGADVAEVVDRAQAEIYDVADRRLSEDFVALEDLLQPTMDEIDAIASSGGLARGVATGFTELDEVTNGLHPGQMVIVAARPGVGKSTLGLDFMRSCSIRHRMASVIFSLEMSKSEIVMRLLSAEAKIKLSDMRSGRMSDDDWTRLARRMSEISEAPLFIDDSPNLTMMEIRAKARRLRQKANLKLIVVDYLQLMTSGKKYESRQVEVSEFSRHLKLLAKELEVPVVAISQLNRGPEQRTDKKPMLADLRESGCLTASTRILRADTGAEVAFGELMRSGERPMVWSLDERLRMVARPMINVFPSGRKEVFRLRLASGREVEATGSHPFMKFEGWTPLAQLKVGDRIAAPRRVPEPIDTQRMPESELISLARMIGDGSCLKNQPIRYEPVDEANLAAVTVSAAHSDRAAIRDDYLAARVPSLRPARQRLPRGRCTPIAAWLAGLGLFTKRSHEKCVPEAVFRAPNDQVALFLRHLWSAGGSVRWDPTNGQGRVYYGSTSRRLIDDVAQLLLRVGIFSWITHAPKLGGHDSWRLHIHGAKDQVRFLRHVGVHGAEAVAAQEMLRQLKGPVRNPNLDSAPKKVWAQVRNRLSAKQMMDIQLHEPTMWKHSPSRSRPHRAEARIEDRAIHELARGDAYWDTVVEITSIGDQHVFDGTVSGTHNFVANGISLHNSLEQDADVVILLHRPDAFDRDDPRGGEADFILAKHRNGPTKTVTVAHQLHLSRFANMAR

[18] = biological target: T3, Dual specificity protein phosphatase 3 (Homo sapiens, UniProt P51452); test: VHR1 phosphatase inhibitors, biochemical (AID 1878)
[19] = biological target: T3, Dual specificity protein phosphatase 3; test: VHR1 phosphatase inhibitors, primary screen, biochemical, absorbance, uHTS (AID 1654)
[20] = biological target: Ras and Rab interactor 1/Tyrosine-protein kinase ABL1 (Homo sapiens, UniProt P00519+Q13671); type: functional;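 note: biochemical TR-FRET dose-response test measuring inhibition of binding between Rin1 and Abl proteins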
[21] = biological target: T4, Dual specificity protein phosphatase 6 (Rattus norvegicus, UniProt Q64346); test: MKP-3 phosphatase inhibitors, primary screen, biochemical, rat enzyme, in vitro (AID 425)
T4 sequence (Q64346 whole entry): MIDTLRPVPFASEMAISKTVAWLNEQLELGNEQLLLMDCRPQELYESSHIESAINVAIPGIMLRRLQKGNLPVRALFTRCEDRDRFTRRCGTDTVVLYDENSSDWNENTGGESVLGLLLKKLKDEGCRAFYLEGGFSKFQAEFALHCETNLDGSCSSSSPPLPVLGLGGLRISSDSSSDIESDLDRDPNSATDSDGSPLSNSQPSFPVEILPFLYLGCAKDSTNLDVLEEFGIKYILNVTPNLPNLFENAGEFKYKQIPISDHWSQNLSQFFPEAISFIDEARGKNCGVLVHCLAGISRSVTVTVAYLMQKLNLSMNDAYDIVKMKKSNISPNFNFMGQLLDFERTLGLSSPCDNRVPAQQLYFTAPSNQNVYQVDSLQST

[22] = biological target: Peroxisome proliferator-activated receptor gamma/Nuclear receptor corepressor 2 (Homo sapiens, UniProt P37231+Q9Y618); type: functional
INS1 = test: beta cell apoptosis inhibitors, cytokine rescue, dose response, luminescence, retest (AID 449756); type: functional, cell-based; settings: Rattus norvegicus;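 note: cell death triggered by IL-1 beta plus TNF-alpha plus IFN-gamma mixture; protective hits raise ATP signal compared with cytokine alone wells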
[23] = MDA-MB-231 cell growth inhibition, dose response, cytotoxicity control for RAD54 inhibitor project, CellTiter-Glo luminescence, cherry-pick (AID 651692); type: functional, cell-based
[24] = biological target: Photoreceptor-specific nuclear receptor (Homo sapiens, UniProt Q9Y5X4); type: functional;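 note: potency for compounds that break the NR2E3 corepressor complex and count as activators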
[25] = biological target: DNA repair and recombination protein RAD54-like (Homo sapiens, UniProt Q92698); test: inhibitors of human RAD54 branch migration, confirmation, biochemical, fluorescence, cherry-picked samples, dose series (AID 651657); type: functional
[26] = cytotoxicity in KRAS-transformed pancreatic duct cells, primary screen, cell-based, fluorescence, HTS (AID 431); type: functional; settings: Homo sapiens;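 note: cell line used: HPDE-C7K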
[27] = biological target: T5, Tyrosine-protein phosphatase non-receptor type 7 (Homo sapiens, UniProt P35236); type: functional
T5 sequence (P35236 whole entry): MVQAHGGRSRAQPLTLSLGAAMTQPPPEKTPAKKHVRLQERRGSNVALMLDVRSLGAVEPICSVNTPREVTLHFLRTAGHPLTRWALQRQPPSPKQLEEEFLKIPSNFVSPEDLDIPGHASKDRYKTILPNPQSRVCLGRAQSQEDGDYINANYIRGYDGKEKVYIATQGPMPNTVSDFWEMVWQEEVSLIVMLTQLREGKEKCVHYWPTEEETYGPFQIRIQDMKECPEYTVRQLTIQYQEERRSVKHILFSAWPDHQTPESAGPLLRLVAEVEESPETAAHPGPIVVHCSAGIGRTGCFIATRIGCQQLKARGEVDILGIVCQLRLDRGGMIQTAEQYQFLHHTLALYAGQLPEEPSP

[28] = cytotoxicity toward NIH3T3 fibroblasts, dose response, counter-screen, cell-based, ATP luminescence, mouse fibroblasts (AID 2010); type: functional;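 note: cells exposed to compound for about 90 hours before reading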
[29] = Intein inhibitors as potential Tuberculosis drugs, a cytotoxicity screen. [Related pubchem assays (depositor defined):AID2221, AID2223, AID434968, AID435010, AID449749, AID449750, AID489010]; type: functional

Chain of Nucleotide-binding oligomerization domain-containing protein 1 (Q9Y239 whole entry, the tested form may be a part): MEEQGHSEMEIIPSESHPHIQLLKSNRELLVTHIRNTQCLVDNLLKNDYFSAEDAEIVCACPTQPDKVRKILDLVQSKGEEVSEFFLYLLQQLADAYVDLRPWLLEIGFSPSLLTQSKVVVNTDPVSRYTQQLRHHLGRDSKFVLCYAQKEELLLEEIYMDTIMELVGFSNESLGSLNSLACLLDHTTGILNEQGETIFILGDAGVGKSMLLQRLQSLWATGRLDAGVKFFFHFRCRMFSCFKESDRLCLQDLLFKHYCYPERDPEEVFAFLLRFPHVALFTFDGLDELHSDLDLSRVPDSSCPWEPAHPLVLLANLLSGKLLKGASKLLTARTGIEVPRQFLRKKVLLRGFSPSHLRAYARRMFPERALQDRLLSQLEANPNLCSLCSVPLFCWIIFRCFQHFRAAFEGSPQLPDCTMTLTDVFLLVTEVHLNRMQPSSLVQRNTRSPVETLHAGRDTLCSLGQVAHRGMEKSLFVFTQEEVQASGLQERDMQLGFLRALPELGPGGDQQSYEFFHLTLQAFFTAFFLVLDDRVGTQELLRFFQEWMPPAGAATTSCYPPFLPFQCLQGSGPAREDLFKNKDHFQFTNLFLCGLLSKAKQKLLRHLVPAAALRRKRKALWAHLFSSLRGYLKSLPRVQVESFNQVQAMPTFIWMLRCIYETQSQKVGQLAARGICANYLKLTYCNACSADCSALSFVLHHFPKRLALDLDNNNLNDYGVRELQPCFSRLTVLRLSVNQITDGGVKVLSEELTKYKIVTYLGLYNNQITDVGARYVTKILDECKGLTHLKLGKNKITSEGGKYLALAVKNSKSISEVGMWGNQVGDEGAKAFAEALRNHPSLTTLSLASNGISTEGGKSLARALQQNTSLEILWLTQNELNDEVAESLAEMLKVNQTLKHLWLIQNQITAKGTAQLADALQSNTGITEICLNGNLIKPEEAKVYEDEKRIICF
T3 sequence (P51452 whole entry): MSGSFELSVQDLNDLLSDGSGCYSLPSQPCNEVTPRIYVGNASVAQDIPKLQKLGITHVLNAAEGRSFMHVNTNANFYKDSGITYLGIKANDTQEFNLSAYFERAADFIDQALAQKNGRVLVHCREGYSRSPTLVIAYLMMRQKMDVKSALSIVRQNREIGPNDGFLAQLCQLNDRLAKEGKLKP
Chain of Tumor necrosis factor (P01375 whole entry): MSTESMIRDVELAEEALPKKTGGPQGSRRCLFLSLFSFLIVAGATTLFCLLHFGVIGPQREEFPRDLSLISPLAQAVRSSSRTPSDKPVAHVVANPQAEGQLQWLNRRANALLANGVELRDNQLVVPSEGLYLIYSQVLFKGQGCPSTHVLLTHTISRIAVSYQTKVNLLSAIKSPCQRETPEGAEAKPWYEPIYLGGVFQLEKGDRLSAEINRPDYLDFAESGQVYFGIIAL
Chain of Peroxisome proliferator-activated receptor gamma/Nuclear receptor corepressor 2 (P37231 whole entry): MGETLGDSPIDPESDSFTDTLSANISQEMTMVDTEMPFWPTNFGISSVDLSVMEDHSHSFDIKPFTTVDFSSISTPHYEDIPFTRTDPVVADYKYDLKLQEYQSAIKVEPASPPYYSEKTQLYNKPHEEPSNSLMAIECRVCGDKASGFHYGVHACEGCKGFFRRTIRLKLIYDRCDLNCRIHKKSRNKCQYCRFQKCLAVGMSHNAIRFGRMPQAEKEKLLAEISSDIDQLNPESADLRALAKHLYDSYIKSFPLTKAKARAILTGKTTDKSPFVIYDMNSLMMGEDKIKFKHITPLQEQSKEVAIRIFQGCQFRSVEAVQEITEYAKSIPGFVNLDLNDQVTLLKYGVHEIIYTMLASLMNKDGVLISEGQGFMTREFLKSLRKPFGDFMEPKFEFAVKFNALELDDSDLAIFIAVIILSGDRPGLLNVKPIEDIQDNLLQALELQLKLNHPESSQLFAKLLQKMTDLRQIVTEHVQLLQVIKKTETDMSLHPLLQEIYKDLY
Chain of Peroxisome proliferator-activated receptor gamma/Nuclear receptor corepressor 2 (Q9Y618 whole entry): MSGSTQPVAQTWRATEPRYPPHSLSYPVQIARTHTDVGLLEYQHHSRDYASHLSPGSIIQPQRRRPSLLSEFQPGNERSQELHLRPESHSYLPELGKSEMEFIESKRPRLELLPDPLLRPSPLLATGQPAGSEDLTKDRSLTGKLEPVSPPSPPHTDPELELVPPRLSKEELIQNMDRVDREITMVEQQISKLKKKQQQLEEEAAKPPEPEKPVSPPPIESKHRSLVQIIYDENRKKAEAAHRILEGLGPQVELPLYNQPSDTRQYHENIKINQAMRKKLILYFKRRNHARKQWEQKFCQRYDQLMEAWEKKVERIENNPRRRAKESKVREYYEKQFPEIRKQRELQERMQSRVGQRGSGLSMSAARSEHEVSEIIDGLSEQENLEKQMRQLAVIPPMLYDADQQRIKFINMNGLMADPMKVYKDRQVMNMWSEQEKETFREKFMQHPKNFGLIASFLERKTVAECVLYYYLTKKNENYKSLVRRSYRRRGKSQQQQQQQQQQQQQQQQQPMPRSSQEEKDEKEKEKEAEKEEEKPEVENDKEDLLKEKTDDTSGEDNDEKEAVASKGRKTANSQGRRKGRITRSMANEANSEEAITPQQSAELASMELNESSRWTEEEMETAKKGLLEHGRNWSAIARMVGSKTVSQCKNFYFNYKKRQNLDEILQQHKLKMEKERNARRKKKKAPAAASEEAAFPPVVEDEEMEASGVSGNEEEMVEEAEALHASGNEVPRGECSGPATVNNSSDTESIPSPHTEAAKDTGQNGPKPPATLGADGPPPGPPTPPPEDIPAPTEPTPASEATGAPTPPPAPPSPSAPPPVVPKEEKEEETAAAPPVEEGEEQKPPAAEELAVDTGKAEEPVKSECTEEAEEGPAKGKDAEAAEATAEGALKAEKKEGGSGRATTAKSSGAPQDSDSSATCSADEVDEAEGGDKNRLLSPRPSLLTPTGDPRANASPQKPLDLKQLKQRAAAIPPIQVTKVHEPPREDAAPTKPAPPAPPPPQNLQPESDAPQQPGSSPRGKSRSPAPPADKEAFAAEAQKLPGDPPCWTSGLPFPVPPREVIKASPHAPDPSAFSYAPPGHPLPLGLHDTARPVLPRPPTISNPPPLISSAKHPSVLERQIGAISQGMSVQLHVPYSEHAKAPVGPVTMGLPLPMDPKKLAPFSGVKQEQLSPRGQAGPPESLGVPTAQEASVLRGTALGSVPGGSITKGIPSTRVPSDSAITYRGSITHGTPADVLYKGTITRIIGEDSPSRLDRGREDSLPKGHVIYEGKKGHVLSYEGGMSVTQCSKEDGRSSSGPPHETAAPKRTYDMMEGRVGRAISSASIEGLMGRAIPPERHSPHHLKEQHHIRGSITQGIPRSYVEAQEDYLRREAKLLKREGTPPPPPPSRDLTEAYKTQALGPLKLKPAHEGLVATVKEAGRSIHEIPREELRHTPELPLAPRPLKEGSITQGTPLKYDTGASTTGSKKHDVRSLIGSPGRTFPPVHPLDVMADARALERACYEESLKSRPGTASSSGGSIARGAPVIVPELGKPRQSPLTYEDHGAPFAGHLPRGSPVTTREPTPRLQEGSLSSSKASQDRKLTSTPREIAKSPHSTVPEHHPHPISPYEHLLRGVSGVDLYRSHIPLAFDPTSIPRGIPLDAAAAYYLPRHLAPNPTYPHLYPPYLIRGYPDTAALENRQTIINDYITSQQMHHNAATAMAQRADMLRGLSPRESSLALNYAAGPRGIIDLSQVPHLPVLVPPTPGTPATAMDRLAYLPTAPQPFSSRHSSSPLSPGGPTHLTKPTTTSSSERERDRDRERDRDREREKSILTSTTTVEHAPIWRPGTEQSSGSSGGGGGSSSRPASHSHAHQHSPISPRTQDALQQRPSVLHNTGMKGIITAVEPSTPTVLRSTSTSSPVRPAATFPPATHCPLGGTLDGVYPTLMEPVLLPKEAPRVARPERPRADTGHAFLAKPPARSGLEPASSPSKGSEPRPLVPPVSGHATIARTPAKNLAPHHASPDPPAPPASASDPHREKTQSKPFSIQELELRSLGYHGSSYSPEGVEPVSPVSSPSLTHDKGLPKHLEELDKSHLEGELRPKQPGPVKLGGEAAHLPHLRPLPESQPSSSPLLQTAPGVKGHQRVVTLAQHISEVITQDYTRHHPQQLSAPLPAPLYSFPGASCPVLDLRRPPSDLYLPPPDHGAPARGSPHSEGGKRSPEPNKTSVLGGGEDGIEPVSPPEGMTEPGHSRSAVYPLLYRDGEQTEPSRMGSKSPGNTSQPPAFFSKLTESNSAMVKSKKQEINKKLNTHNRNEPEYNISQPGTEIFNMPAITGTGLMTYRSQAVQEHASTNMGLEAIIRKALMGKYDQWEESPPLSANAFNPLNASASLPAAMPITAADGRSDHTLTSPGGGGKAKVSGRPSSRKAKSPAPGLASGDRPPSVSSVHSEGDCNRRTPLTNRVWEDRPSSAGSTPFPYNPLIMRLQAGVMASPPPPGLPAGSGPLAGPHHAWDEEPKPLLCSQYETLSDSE
Chain of Sphingosine 1-phosphate receptor 1 (P21453 whole entry): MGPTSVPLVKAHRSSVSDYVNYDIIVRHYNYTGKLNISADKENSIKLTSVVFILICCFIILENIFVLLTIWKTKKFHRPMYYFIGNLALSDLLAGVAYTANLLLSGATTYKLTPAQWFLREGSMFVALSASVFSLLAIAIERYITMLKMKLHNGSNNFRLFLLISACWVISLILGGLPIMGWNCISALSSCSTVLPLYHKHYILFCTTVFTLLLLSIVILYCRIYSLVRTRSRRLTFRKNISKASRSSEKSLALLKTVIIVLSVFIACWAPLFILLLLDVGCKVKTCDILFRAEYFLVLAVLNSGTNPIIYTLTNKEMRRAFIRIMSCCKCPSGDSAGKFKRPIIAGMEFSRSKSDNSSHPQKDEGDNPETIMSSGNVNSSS

With `COC(=O)c1ccc(NS(=O)(=O)c2ccc3[nH]c(=O)oc3c2)cc1` the IC50 [1] was > 100 µM (inactive), the IC50 [2] was 2.6 µM (active) and the IC50 [3] was > 100 µM (inactive).
With `Cc1ccccc1-n1c(=O)c(C#N)cc2c(=O)n3ccccc3nc21` the EC50 [4] was > 160 µM (inactive), the EC50 [5] was 7.88 µM (active) and the EC50 [6] was 2.58 µM (active). The EC50 [7] was > 38 µM (not active) and the EC50 [8] was 7.45 µM (active).
In the case of `COC(=O)CC1=NN(c2nc3ccccc3s2)C(=O)/C1=C(/C)Nc1ccc(OC)cc1`, the IC50 (Tumor necrosis factor) was < 39.1 nM (active) and 4.12 µM (active), the IC50 (HEK293) was > 20 µM (inactive) and the IC50 [9] was 260 nM (active) and 2.38 µM (active).
With `Cn1ncnc2c(=O)n(C)c(=O)nc1-2` the EC50 [10] was 0.47 µM (active), the EC50 [11] was 0.492 µM (active) and the AC50 [12] was 0.463 µM (active). The AC50 [13] was 0.541 µM (active), the CC50 [14] was 7.98 µM (active) and the AC50 [15] was 2.54 µM (active). The IC50 [16] was 2 µM (active), the AC50 [17] was 0.057 µM (active) and the IC50 [18] was 1.36 µM (active). The IC50 [19] was < 0.98 µM (inactive), the IC50 [20] was 0.323 µM (active) and the IC50 [21] was 2.32 µM (active). The IC50 [22] was > 39.8 µM (not active), the AC50 (INS1) was 0.627 µM (active) and the AC50 [23] was 1.8 µM (active). For the same compound, the IC50 [24] was > 39.8 µM (not active), the AC50 [25] was 1.1 µM (active) and the EC50 [26] was 0.64 µM (active). For the same compound, the IC50 [27] was < 1.24 µM (active), the EC50 [28] was 0.85 µM (active) and the CC50 [29] was 10.3 µM (active).
